# Laboratory results taken from paper PMC10343299, “S-Ethyl-Isothiocitrullin-Based Dipeptides and 1,2,4-Oxadiazole Pseudo-Dipeptides: Solid Phase Synthesis and Evaluation as NO Synthase Inhibitors” (Molecules, 2023).
# Read-outs that look alike come from different tables or passages of the source.
# Experiments:
# [1] = molecular target: T1, mouse iNOS (Mus musculus, UniProt P29477); assay: NOS inhibition, oxyhemoglobin (hemoglobin capture) test, recombinant iNOS; format: biochemical; conditions: recombinant enzyme, 20 µM arginine, triplicate, NI = <50% inhibition at 100 μM; for inhibition at 100 µM: read-out: IC50 (μM) iNOS (Mouse)
# T1 construct: Full-length recombinant rat nNOS, mouse iNOS, bovine eNOS; made in house; host or cells: Escherichia coli
# T1 sequence (P29477 1-1144): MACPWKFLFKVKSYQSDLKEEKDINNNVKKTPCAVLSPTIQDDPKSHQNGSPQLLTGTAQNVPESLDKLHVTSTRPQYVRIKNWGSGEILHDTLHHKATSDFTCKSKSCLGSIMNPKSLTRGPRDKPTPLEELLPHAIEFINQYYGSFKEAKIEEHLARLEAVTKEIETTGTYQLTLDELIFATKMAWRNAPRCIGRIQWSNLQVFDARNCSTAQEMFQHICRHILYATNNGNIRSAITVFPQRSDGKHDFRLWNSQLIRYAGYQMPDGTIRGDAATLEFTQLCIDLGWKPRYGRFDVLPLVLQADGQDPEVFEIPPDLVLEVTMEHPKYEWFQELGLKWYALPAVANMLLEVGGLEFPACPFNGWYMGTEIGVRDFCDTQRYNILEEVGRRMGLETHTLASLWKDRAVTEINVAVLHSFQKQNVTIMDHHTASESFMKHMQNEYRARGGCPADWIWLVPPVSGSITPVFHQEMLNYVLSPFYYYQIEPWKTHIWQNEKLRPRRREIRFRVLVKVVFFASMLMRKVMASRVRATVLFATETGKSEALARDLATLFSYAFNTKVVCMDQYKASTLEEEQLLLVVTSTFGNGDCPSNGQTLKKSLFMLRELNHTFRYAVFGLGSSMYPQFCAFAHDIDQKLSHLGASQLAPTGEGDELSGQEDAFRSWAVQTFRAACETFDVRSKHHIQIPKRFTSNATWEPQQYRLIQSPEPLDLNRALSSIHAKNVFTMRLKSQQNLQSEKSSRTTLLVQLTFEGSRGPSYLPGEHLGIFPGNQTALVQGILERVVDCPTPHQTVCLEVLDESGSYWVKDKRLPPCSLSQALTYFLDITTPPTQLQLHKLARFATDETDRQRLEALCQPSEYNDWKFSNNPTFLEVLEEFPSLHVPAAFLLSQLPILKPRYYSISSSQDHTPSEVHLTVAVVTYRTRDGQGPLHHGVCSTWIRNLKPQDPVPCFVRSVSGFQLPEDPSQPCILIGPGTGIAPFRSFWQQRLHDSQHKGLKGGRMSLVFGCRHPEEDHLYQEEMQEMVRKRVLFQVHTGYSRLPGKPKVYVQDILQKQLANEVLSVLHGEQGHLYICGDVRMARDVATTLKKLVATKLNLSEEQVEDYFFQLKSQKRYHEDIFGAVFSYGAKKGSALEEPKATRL
# Protocol: (§1) The inhibitory effects of all compounds against the three recombinant NOSs (rat nNOS, mouse iNOS, and bovine eNOS) were evaluated in 96-well plates using the oxyhemoglobin test. A first screening at 100 and 10 μM was performed, and the IC50 values were measured for compounds showing more than 50% inhibition at 100 μM (Table 1 and Table 2).
# (§2) Full-length recombinant rat nNOS, mouse iNOS, bovine eNOS, and the heme domains of rat brain nNOS and mouse iNOS were expressed in Escherichia coli and purified as described previously.
# (§3) NOS catalytic activity was measured using the hemoglobin capture assay. The test was performed at 30 °C in 96-well microplates using a final volume of 200 µL. The assay mixture contained 100 µM NADPH, 10 µM BH4, 6 µM HbO2, 100 µM DTT, 5 µM FAD, 5 µM FMN, 10 µM (nNOS and eNOS), or 20 µM (iNOS) arginine, all in a 100 mM Hepes buffer, pH 7.5, and, for constitutive n- and e-NOS, 10 µg/mL calmodulin, and 1 mM CaCl2. The studied compounds were introduced as 2 μL of ×100 concentrated solutions in DMSO, and the control experiments were performed with DMSO or the buffer only. The kinetics of NO production were measured at 401 nm using an Infinite F500 microplate reader (Tecan, Singapore).
# [2] = test system: INS-1 cells (nNOS); assay: Glucose-induced insulin secretion; format: cell-based; conditions: 5.6 mM glucose, no IL-1β, 1 h, compounds 500 µM to 5 mM, L-NAME 5 mM
# Protocol: Indeed, pancreatic β-cells are known to constitutively express the nNOS isoform, which negatively modulates glucose-induced insulin secretion.
# The insulin-secreting cell line INS-1 (a gift from Prof. C. Wolheim, Geneva, Switzerland) was cultured in RPMI-1640 supplemented with 10% FCS, 100 units/mL penicillin, 100 µg/mL streptomycin, 2 mM L-glutamine, 10 mM HEPES, 1 mM sodium pyruvate, and […] 2-mercaptoethanol, according to M. Asfari et al.’s method.
# The functional effects of compounds were evaluated on INS-1 cells. Cells were preincubated for 1 h at 37 °C in a Krebs–Ringer bicarbonate buffer (108 mM NaCl, 1.19 mM KH2PO4, 4.74 mM KCl, 2.54 mM CaCl2, 1.19 mM MgSO4·7H2O, and 18 mM NaHCO3) containing 2 g/L BSA in the absence of glucose. After removal of the medium, the cells were stimulated for another hour at 37°C in the same buffer in the presence of 5.6 mM glucose and the presence of increasing concentrations of L-NAME or compounds (from 500 µM to 5 mM). At the end of the incubation period, the medium was collected, and the insulin was measured using an insulin high-range assay kit (CisBio, Codolet, France). Data are expressed as means ± SEM of the experiments (indicated in the result part).
# [3] = molecular target: T2, rat nNOS (Rattus norvegicus, UniProt P29476); assay: NOS inhibition, oxyhemoglobin (hemoglobin capture) test, recombinant nNOS; format: biochemical; conditions: for IC50: recombinant enzyme, 10 µM arginine, triplicate, NI = <50% inhibition at 100 μM
# T2 construct: Full-length recombinant rat nNOS, mouse iNOS, bovine eNOS; made in house; host or cells: Escherichia coli
# T2 sequence (P29476 whole entry): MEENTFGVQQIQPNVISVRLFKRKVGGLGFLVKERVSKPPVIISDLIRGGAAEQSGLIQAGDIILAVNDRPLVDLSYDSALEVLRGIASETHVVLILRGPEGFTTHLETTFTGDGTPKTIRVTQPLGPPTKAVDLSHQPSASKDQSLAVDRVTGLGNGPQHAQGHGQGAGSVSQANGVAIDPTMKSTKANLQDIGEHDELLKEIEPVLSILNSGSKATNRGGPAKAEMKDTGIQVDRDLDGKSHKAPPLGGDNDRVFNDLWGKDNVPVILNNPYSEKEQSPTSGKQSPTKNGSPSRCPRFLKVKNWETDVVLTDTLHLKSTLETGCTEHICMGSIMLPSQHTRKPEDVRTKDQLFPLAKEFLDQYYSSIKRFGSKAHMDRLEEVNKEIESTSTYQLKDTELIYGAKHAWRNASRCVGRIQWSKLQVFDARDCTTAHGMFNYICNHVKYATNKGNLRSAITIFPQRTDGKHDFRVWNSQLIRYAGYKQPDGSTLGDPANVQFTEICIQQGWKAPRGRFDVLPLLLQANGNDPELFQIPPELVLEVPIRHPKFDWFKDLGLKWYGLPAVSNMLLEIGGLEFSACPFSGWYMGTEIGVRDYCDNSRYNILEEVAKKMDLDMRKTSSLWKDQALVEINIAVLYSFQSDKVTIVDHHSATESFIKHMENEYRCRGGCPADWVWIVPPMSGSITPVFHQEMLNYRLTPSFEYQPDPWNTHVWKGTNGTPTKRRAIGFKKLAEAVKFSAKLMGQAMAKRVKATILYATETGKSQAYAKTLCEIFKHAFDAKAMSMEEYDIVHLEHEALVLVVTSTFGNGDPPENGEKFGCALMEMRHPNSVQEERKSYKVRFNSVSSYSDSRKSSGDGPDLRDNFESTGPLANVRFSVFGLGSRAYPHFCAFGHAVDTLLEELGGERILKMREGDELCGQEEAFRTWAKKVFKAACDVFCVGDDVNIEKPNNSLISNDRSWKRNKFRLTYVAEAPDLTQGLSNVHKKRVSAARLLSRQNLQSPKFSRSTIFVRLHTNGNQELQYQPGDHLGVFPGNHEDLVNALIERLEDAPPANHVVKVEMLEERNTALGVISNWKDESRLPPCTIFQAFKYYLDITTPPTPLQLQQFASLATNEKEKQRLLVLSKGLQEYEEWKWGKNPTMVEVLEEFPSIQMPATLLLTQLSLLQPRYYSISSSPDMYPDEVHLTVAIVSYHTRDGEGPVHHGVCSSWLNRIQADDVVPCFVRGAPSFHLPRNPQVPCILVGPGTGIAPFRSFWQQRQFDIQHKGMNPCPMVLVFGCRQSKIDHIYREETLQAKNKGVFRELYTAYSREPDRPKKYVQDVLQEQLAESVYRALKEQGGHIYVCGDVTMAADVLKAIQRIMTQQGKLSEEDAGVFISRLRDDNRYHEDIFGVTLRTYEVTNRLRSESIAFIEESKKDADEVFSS
# Protocol: as §1, §2, §3
# [4] = test system: RAW 264.7 cells; assay: Cell viability, MTT assay; format: cell-based, murine
# Protocol: Cell viability was evaluated in the murine macrophage RAW 264.7 cells using an MTT assay for compounds 18, 21, 26, and 30. This experiment was performed without or with LPS (1 µg/mL), which induces iNOS expression (Figure S1). […] Compound 30 only killed 20% of the cells at 500 μM (Figure S1A). In the presence of LPS (1 µg/mL), cell viability was reduced by 30% due to the inhibition by NO of key enzymes involved in cell metabolism (Figure S1B).
# The macrophage cell line RAW 264.7 (a gift from Dr. A. Blangy, Montpellier, France) was cultured in Dulbecco’s Modified Eagle’s Medium (DMEM) supplemented with 10% FCS, 100 units/mL penicillin, 100 µg/mL streptomycin, and 2 mM L-glutamine.
# Cellular NO production was measured using the Griess reagent (Sigma-Aldrich), which evaluates the nitrite content in culture media. Cellular toxicity was estimated by the MTT assay (Sigma-Aldrich) in RAW 264.7 cells after the induction (or not) of iNOS by LPS, according to the manufacturer’s recommendations.
# [5] = molecular target: T3, bovine eNOS (Bos taurus, UniProt P29473); assay: NOS inhibition, oxyhemoglobin (hemoglobin capture) test, recombinant eNOS; format: biochemical; conditions: recombinant enzyme, 10 µM arginine, triplicate, NI = <50% inhibition at 100 μM, read-out: IC50 (μM) eNOS (Bovine)
# T3 construct: Full-length recombinant rat nNOS, mouse iNOS, bovine eNOS; made in house; host or cells: Escherichia coli
# T3 sequence (P29473 whole entry): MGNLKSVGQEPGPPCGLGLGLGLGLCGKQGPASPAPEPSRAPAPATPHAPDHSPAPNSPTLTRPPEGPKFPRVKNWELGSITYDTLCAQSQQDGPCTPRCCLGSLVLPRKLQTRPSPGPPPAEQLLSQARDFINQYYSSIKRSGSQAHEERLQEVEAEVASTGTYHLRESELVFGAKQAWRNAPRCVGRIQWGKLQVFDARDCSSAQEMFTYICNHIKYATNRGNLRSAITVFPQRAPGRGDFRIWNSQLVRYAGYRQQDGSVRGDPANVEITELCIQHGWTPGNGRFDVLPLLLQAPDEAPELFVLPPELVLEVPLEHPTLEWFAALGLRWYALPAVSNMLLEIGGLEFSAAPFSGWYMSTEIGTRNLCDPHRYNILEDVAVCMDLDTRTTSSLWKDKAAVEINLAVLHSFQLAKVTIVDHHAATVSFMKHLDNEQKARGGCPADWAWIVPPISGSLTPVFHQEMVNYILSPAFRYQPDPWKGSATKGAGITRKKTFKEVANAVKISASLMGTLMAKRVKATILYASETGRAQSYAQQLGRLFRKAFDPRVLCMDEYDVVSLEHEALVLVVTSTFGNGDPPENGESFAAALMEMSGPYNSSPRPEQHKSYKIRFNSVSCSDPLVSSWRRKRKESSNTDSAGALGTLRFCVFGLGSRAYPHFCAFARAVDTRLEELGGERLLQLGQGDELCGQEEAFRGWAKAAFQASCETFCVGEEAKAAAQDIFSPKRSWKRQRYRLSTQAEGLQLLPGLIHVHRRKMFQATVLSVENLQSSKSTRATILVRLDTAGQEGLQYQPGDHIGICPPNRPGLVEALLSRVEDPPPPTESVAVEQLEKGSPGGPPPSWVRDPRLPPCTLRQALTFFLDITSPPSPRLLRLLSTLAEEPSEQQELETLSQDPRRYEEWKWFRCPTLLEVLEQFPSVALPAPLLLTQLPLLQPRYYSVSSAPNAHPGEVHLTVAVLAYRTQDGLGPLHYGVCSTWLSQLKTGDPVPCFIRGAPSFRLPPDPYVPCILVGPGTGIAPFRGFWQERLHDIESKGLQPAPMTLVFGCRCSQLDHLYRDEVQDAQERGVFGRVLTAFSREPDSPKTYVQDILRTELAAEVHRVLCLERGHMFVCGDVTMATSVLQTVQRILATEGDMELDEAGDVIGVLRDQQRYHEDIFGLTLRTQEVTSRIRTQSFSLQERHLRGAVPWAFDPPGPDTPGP
# [6] = molecular target: T4, oxygenase domain of iNOS (iNOSoxy) (Mus musculus, UniProt P29477); assay: UV-visible difference spectroscopy titration of iNOSoxy; format: binding; conditions: UV/Vis difference spectroscopy, ± SD, three experiments; read-out: Apparent equilibrium constant Ks iNOSoxy
# T4 construct: the oxygenase domain of nNOS (nNOSoxy) and iNOS (iNOSoxy); made in house; host or cells: Escherichia coli
# T4 sequence (P29477 1-498 limits assumed): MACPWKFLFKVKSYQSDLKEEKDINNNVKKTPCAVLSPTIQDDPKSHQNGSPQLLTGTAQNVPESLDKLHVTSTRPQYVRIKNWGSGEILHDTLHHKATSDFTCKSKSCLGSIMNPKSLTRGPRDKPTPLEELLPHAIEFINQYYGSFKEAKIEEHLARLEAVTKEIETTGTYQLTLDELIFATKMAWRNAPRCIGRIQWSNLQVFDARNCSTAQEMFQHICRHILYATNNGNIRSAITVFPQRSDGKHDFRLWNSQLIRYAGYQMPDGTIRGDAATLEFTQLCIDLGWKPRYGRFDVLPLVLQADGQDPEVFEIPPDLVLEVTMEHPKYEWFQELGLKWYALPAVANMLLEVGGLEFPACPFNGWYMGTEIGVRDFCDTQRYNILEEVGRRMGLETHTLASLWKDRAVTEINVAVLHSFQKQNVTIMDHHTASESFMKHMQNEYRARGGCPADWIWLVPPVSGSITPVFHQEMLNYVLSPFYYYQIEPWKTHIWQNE
# Text: (§4) We performed UV–visible difference spectroscopy to analyze the interaction mode of some inhibitors with the heme-active site of NOS [54]. We have studied the effects of dipeptide-like compounds 7, 17, 19, 23, and 27 and 1,2,4-oxadiazole 35 on the UV–visible spectra of the oxygenase domain of nNOS (nNOSoxy) and iNOS (iNOSoxy). As expected, when added stepwise to n- and iNOSoxy, all selected compounds elicited different spectra with a trough at ~425 nm and a peak at ~395 nm, similar to the substrate L-arginine. This profile is characteristic of type I interactions, meaning that they are bound in close proximity to the heme prosthetic group and shifted the spin state equilibrium to the pentacoordinated heme–Fe^III state. Double reverse plotting of the differences in absorbance between the peak at ~395 nm and valley at ~425 nm (ΔA395–425 nm) as a function of the concentration of the added compounds allowed calculating apparent binding constants (Ks) (Table 3). The reference inhibitor SEITU [55] tightly bound both NOS isoforms with high affinity but no selectivity. With the exception of the dipeptide-like 27 and the heterocyclic analog 35, which similarly interacted with both proteins, other compounds preferentially bound nNOSoxy over iNOSoxy with apparent affinities close to SEITU for this isoform.
# as §2
# (§5) This study was performed as previously described.
# [7] = molecular target: T5, oxygenase domain of nNOS (nNOSoxy) (Rattus norvegicus, UniProt P29476); assay: UV-visible difference spectroscopy titration of nNOSoxy; format: binding; conditions: UV/Vis difference spectroscopy, ± SD, three experiments; read-out: Apparent equilibrium constant Ks nNOSoxy
# T5 construct: the oxygenase domain of nNOS (nNOSoxy) and iNOS (iNOSoxy); made in house; host or cells: Escherichia coli
# T5 sequence (P29476 1-720 limits assumed): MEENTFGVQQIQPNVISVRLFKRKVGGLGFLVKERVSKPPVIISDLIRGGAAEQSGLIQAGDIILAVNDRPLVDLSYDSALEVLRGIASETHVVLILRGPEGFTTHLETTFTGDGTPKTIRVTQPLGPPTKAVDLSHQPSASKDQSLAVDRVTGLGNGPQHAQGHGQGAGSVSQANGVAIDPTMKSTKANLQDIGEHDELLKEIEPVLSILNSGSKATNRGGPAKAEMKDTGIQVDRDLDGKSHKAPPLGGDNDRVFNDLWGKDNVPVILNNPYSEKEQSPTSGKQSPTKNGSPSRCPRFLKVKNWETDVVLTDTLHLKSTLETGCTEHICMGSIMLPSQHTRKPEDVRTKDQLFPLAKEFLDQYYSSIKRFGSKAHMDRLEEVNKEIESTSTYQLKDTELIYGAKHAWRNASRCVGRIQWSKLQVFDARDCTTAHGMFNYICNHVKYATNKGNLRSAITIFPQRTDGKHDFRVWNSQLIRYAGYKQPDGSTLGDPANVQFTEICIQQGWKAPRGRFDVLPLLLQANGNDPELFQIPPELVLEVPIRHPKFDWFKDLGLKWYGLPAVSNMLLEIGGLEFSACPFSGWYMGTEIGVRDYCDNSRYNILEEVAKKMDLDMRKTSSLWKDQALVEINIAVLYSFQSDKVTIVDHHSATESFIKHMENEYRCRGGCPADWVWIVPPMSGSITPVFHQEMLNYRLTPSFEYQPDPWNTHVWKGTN
# Text: as §4, §2, §5
# [8] = test system: iNOS; parameters: method as in PMID 32027778; conditions: Figure 1; previously described compounds; cited from earlier work
# [9] = test system: nNOS; parameters: method as in PMID 32027778; conditions: Figure 1; previously described compounds; cited from earlier work
# [10] = test system: eNOS; parameters: method as in PMID 32027778; conditions: Figure 1; previously described compounds; cited from earlier work
SMILES,IC50 ([1]; dipeptide-like series) [µM],Effect on insulin secretion [2],IC50 ([3]; dipeptide-like series) [µM],inhibition at 100 µM ([5]; dipeptide-like series) [%],Kd [6] [µM],Kd [7] [µM],also measured
CCSC(=N)NCCC[C@H](N)C(=O)N[C@H]1CCCN(Cc2cc([N+](=O)[O-])ccc2O)C1 [Compound 14],27.8,dose-dependently stimulate glucose insulin secretion with better efficiency than L-NAME,5.4,–,–,–,–
CCSC(=N)NCCC[C@H](N)C(=O)N[C@H]1CCCN(Cc2ccc(C(F)(F)F)c(Cl)c2)C1 [Compound 18],–,dose-dependently stimulate glucose insulin secretion with better efficiency than L-NAME,6,< 50,–,–,"Reversal of LPS-induced reduction of cell viability ([4]; RAW 264.7, LPS 1 µg/mL): none partially reversed the LPS effect; Effect on cell viability (MTT) ([4]; RAW 264.7, absence of LPS, up to 100 μM): fully toxic; inhibition at 100 µM ([1]; dipeptide-like series): < 50%"
CCSC(=N)NCCC[C@H](N)C(=O)N[C@H]1CCCN(Cc2ccccc2C(F)(F)F)C1 [Compound 19],–,–,7.7,< 50,96 ± 36,5.2 ± 1.1,inhibition at 100 µM ([1]; dipeptide-like series): < 50%
CCSC(=N)NCCC[C@H](N)C(=O)N[C@H]1CCCN(Cc2ccc3ccccc3c2)C1 [Compound 22],11.9,dose-dependently stimulate glucose insulin secretion with better efficiency than L-NAME,12.7,< 50,–,–,–
CCSC(=N)NCCC[C@H](N)C(=O)N[C@H]1CCCN(Cc2ccc(-c3ccccc3)cc2)C1 [Compound 23],46.9,–,5.4,< 50,92.5 ± 8.8,11.4 ± 3.8,–
CCSC(=N)NCCC[C@H](N)c1nc(CCN(Cc2ccc3ccccc3c2)Cc2ccc3ccccc3c2)no1 [Compound 35],–,–,–,–,42.4 ± 8.7,47.1 ± 13,"IC50 ([1]; 1,2,4-oxadiazole series): 11.7 µM; inhibition at 100 µM ([5]; 1,2,4-oxadiazole series): < 50%; IC50 ([3]; 1,2,4-oxadiazole series): 0.4 µM; Selectivity for nNOS against eNOS ([3]; from IC50 values): > 250 fold; Selectivity for nNOS against iNOS ([3]; from IC50 values): approximately 30 fold"
CCSC(=N)NCCC[C@H](N)c1nc(C)no1 [JMV3457],–,–,–,–,–,–,IC50 [8]: 19 µM; IC50 [9]: 9.4 µM; IC50 [10]: 45 µM
CCSC(=N)NCCC[C@H](N)C(=O)NCCCN [JMV4246],–,–,–,–,–,–,IC50 [8]: 48 µM; IC50 [9]: 6.6 µM; IC50 [10]: 52 µM
"COC(=O)[C@@H](N)CCCNC(N)=N[N+](=O)[O-] [L-NAME, reference compound]",–,potentiated insulin release,–,–,–,–,–
